Laboratory results reported in US20260224588A1, “BENZODIAZEPINONE-DERIVED INHIBITORS OF EGFR AND HER2” (The Research Foundation for the State University of New York, priority 2023, published 2026).

Legend:
[1] = molecular target: T1, ABL1(F317I)-phosphorylated (Homo sapiens, UniProt P00519, F317I); experiment: KINOMEscan; format: binding; conditions: 1 μM of compound 4; read-out: POC
T1 construct: purchased Eurofins DiscoverX Corporation

[2] = molecular target: T2, ABL1(Q252H)-phosphorylated (Homo sapiens, UniProt P00519, Q252H); experiment: KINOMEscan; format: binding; conditions: 1 μM of compound 4; read-out: POC
T2 construct: purchased Eurofins DiscoverX Corporation

[3] = molecular target: AURKB (Homo sapiens, UniProt Q96GD4); experiment: KINOMEscan; format: binding; conditions: 1 μM of compound 4; read-out: POC
[4] = molecular target: AXL (Homo sapiens, UniProt P30530); experiment: KINOMEscan; format: binding; conditions: 1 μM of compound 4; read-out: POC
[5] = molecular target: CDC2L1 (Homo sapiens, UniProt P21127); experiment: KINOMEscan; format: binding; conditions: 1 μM of compound 4; read-out: POC
[6] = molecular target: CHEK2 (Homo sapiens, UniProt O96017); experiment: KINOMEscan; format: binding; conditions: 1 μM of compound 4; read-out: POC
[7] = molecular target: CSNK2A1 (Homo sapiens, UniProt P68400); experiment: KINOMEscan; format: binding; conditions: 1 μM of compound 4; read-out: POC
[8] = molecular target: T3, EGFR(L747-E749del + A750P) (Homo sapiens, UniProt P00533, A750P/DEL747-749); experiment: KINOMEscan; format: binding; conditions: 1 μM of compound 4; read-out: POC
T3 construct: purchased Eurofins DiscoverX (KINOMEscan service)

[9] = molecular target: T4, EPHA3 (Homo sapiens, UniProt P29320); experiment: KINOMEscan; format: binding; conditions: 1 μM of compound 4; read-out: POC
T4 construct: purchased Eurofins DiscoverX (KINOMEscan service)

[10] = molecular target: T5, GRK2 (Homo sapiens, UniProt P25098); experiment: KINOMEscan; format: binding; conditions: 1 μM of compound 4; read-out: POC
T5 construct: purchased Eurofins DiscoverX Corporation

[11] = molecular target: T6, HASPIN (Homo sapiens, UniProt Q8TF76); experiment: KINOMEscan; format: binding; conditions: 1 μM of compound 4; read-out: POC
T6 construct: purchased Eurofins DiscoverX Corporation

[12] = molecular target: T7, HIPK3 (Homo sapiens, UniProt Q9H422); experiment: KINOMEscan; format: binding; conditions: 1 μM of compound 4; read-out: POC
T7 construct: purchased Eurofins DiscoverX Corporation

[13] = molecular target: KIT(V559D) (Homo sapiens, UniProt P10721, V559D); experiment: KINOMEscan; format: binding; conditions: 1 μM of compound 4; read-out: POC
[14] = molecular target: LATS2 (Homo sapiens, UniProt Q9NRM7); experiment: KINOMEscan; format: binding; conditions: 1 μM of compound 4; read-out: POC
[15] = molecular target: LIMK2 (Homo sapiens, UniProt P53671); experiment: KINOMEscan; format: binding; conditions: 1 μM of compound 4; read-out: POC
[16] = molecular target: MERTK (Homo sapiens, UniProt Q12866); experiment: KINOMEscan; format: binding; conditions: 1 μM of compound 4; read-out: POC
[17] = molecular target: MKNK1 (Homo sapiens, UniProt Q9BUB5); experiment: KINOMEscan; format: binding; conditions: 1 μM of compound 4; read-out: POC
[18] = molecular target: MYO3A (Homo sapiens, UniProt Q8NEV4); experiment: KINOMEscan; format: binding; conditions: 1 μM of compound 4; read-out: POC
[19] = molecular target: T8, NIK (Homo sapiens, UniProt Q99558); experiment: KINOMEscan; format: binding; conditions: 1 μM of compound 4; read-out: POC
T8 construct: purchased Eurofins DiscoverX Corporation (KINOMEscan)

[20] = molecular target: T9, PAK3 (Homo sapiens, UniProt O75914); experiment: KINOMEscan; format: binding; conditions: 1 μM of compound 4; read-out: POC
T9 construct: purchased Eurofins DiscoverX Corporation (KINOMEscan)

[21] = molecular target: PFTK1 (Homo sapiens, UniProt O94921); experiment: KINOMEscan; format: binding; conditions: 1 μM of compound 4; read-out: POC
[22] = molecular target: PIK3CA(H1047L) (Homo sapiens, UniProt P42336, H1047L); experiment: KINOMEscan; format: binding; conditions: 1 μM of compound 4; read-out: POC
[23] = molecular target: PLK1 (Homo sapiens, UniProt P53350); experiment: KINOMEscan; format: binding; conditions: 1 μM of compound 4; read-out: POC
[24] = molecular target: PRKCH (Homo sapiens, UniProt P24723); experiment: KINOMEscan; format: binding; conditions: 1 μM of compound 4; read-out: POC
[25] = molecular target: T10, RET (Homo sapiens, UniProt P07949); experiment: KINOMEscan; format: binding; conditions: 1 μM of compound 4; read-out: POC
T10 construct: purchased Eurofins DiscoverX Corporation (KINOMEscan screening service)

[26] = molecular target: T11, RET(V804M) (Homo sapiens, UniProt P07949, V804M); experiment: KINOMEscan; format: binding; conditions: 1 μM of compound 4; read-out: POC
T11 construct: purchased Eurofins DiscoverX Corporation (KINOMEscan screening service)

[27] = molecular target: T12, SLK (Homo sapiens, UniProt Q9H2G2); experiment: KINOMEscan; format: binding; conditions: 1 μM of compound 4; read-out: POC
T12 construct: purchased Eurofins DiscoverX (KINOMEscan service)

[28] = molecular target: T13, TLK2 (Homo sapiens, UniProt Q86UE8); experiment: KINOMEscan; format: binding; conditions: 1 μM of compound 4; read-out: POC
T13 construct: purchased Eurofins DiscoverX Corporation

[29] = molecular target: T14, WNK1 (Homo sapiens, UniProt Q9H4A3); experiment: KINOMEscan; format: binding; conditions: 1 μM of compound 4; read-out: POC
T14 construct: purchased Eurofins DiscoverX

[30] = molecular target: EGFR(L858R) (Homo sapiens, UniProt P00533, L858R); experiment: Time-dependent kinase inhibition assay (Sox-based substrate); format: biochemical; parameters: EGFR [L858R], cytoplasmic domain (669-1210), GST-tagged, Carna; purchased Carna 08-510
Description: Time-dependent Kinase Inhibition Assays. Biochemical assays were performed with commercially available EGFR WT, cytoplasmic domain (669-1210), GST-tagged, Carna (Cat #/Lot #: 08-115/21CBS-0127H), EGFR [T790M/L858R] and EGFR [L858R], cytoplasmic domain (669-1210), GST-tagged, Carna (Cat #/Lot #: 08-510/12CBS-0765M). […] BSA was not included in this experiment to prevent interference with irreversible inhibitor characterization via off-target binding. All reactions were run for 240 minutes at 30° C. Time-dependent fluorescence from the Sox-based substrate was monitored in PerkinElmer ProxiPlate-384 Plus, white shallow well microplates (Cat. #6008280) Biotek Synergy Neo 2 microplate reader with excitation (360 nm) and emission (485 nm) wavelengths. 2 was dosed between 0 and 10 μM in 24-point curves with 1.5-fold dilutions. Fluorescence, determined with identical reactions but lacking purified enzyme or crude cell lysate was subtracted from the total fluorescence signal for each time point, with both determined in duplicate, to obtain corrected relative fluorescence units (RFU). Corrected RFU values then were plotted vs. time and the reaction velocity for the first ~40 min (initial reaction rates) were determined from the slope using GraphPad Prism (La Jolla, CA) with units of RFU/min.

Sequence of EGFR(L858R) (P00533 669-1210 L858R): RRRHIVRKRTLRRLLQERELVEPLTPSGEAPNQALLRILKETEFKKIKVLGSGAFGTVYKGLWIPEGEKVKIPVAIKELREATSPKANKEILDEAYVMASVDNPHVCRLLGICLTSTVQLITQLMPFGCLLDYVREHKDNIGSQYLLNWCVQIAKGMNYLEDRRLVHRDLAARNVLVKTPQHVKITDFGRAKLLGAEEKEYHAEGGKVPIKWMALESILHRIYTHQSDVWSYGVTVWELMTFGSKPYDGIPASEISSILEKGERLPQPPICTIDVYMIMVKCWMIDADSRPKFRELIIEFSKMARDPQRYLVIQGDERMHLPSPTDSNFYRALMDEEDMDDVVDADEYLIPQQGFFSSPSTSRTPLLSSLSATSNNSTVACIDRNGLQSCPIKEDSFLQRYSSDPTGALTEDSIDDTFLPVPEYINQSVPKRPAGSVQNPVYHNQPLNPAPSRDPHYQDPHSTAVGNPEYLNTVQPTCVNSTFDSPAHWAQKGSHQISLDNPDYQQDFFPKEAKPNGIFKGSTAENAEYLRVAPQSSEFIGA
T5 sequence (P25098 whole entry): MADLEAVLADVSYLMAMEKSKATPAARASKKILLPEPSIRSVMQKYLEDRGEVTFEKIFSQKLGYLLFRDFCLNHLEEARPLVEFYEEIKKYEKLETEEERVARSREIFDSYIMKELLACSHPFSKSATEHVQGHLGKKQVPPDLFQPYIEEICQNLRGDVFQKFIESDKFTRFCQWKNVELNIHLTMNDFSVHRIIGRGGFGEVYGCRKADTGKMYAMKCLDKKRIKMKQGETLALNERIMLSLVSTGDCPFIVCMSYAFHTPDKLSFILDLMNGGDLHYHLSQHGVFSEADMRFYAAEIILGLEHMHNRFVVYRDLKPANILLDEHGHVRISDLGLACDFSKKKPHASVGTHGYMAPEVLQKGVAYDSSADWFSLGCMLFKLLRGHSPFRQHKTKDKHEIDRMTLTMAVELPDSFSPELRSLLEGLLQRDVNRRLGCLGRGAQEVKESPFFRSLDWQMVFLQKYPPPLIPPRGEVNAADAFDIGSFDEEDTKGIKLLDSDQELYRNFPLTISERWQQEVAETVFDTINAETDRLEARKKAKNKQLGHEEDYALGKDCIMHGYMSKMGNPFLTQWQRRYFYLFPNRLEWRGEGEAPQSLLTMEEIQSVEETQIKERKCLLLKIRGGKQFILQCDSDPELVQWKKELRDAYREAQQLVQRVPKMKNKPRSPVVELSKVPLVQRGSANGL
Sequence of AURKB (Q96GD4 whole entry): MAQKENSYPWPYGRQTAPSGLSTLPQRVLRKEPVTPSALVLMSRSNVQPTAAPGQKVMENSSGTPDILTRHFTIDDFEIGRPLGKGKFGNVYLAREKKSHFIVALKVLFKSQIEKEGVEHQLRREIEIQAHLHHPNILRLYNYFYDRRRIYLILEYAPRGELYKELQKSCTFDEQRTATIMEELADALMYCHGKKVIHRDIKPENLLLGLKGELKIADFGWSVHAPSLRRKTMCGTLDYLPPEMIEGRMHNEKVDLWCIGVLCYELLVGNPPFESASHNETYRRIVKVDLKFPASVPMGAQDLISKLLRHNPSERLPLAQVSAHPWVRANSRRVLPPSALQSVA
Sequence of LATS2 (Q9NRM7 whole entry): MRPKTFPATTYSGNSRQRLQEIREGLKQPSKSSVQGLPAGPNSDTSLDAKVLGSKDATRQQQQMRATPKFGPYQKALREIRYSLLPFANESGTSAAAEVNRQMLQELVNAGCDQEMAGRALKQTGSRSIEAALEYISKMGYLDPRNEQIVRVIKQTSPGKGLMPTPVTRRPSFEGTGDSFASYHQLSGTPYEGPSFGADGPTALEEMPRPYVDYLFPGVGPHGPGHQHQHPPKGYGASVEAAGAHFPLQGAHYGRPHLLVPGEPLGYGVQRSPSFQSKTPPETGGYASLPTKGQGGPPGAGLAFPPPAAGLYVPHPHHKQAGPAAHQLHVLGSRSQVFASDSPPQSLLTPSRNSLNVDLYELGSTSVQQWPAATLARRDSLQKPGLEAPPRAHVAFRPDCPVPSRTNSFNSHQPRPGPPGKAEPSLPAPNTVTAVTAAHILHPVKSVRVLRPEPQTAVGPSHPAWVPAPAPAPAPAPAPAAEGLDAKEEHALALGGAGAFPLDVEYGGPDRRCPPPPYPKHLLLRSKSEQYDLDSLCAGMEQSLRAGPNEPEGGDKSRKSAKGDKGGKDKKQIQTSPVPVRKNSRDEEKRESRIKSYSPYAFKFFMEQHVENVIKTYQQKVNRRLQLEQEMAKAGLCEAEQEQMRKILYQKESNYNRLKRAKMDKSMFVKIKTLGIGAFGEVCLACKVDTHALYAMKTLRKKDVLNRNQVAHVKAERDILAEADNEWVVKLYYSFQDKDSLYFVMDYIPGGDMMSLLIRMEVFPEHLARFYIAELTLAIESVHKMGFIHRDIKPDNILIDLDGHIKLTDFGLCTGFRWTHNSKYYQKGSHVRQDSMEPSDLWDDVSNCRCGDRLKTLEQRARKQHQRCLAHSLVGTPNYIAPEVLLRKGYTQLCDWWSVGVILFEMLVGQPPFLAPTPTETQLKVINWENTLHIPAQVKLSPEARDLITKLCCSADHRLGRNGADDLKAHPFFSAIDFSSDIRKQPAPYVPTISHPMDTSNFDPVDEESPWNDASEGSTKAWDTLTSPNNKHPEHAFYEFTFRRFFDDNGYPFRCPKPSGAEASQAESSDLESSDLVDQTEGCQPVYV
Sequence of KIT(V559D) (P10721 26-976 V559D): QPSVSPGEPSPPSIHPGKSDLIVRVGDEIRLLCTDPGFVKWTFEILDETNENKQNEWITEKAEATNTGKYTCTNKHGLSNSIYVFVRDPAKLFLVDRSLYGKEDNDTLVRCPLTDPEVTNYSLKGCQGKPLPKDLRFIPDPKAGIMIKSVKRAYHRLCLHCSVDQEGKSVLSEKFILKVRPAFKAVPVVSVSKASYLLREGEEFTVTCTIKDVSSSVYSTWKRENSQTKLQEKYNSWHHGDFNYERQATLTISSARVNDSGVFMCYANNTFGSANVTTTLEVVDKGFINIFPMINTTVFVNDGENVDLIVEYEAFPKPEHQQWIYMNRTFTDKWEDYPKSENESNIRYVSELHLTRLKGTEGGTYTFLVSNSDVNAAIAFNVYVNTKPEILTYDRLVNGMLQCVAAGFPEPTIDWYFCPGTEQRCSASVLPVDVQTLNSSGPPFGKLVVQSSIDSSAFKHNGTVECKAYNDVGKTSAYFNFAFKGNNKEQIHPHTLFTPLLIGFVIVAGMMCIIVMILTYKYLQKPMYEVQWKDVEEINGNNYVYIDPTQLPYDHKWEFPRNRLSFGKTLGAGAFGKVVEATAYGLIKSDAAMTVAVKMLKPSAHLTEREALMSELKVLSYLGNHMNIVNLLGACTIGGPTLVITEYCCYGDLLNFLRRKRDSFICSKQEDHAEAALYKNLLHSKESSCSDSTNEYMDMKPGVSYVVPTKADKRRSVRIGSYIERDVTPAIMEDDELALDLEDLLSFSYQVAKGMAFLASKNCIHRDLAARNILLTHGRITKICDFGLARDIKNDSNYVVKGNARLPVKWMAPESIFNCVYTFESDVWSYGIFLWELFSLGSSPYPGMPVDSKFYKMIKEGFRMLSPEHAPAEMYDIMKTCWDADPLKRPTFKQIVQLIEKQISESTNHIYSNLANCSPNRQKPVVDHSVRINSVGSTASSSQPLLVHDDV
Sequence of AXL (P30530 26-894): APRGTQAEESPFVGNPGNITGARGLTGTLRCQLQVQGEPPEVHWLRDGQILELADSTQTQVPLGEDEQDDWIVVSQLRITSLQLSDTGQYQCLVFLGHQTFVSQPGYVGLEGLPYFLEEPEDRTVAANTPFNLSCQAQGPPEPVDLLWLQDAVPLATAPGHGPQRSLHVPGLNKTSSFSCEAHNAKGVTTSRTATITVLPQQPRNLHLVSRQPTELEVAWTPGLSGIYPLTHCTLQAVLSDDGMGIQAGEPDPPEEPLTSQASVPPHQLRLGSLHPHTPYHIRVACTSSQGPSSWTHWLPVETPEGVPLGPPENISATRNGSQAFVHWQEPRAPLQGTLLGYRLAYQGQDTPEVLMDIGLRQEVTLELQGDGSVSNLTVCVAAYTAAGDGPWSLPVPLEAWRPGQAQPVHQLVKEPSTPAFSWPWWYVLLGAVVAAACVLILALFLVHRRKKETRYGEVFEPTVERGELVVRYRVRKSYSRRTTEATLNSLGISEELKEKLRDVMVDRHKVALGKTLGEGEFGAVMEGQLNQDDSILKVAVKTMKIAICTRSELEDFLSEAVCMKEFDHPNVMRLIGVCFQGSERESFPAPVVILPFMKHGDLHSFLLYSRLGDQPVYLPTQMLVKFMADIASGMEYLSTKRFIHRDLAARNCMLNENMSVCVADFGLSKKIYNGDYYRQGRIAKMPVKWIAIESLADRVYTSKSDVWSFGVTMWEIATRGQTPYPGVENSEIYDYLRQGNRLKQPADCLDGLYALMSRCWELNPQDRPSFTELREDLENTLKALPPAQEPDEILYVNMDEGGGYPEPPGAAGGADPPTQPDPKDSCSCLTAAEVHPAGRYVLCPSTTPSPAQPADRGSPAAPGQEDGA
T9 sequence (O75914 whole entry): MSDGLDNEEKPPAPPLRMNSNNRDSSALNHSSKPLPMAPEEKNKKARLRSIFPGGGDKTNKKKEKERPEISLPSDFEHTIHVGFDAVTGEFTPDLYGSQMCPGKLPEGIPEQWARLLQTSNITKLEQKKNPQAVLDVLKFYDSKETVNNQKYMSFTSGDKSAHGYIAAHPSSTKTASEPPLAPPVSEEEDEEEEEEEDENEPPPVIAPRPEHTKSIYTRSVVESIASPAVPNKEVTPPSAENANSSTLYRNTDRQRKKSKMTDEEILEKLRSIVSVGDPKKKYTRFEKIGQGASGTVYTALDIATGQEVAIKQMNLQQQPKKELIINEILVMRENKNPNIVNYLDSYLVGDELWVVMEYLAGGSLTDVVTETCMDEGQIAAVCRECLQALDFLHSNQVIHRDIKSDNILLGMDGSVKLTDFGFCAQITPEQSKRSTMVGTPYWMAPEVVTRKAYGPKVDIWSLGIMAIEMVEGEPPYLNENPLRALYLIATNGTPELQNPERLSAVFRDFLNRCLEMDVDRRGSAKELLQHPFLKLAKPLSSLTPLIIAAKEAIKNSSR

Which remaining binding at 1 µM [1] does the source give for `C=CC(=O)Nc1ccc(OC)c(Nc2cc(-c3[nH]c(CC)nc3-c3cccc(NC(=O)c4cccc5c4NC(=O)c4ccccc4N5)c3)ccn2)c1` [Compound 4, N-(3-(5-(2-((5-Acrylamido-2-methoxyphenyl)amino)pyridin-4-yl)-2-ethyl-1H-imidazol-4-yl)phenyl)-11-oxo-10,11-dihydro-5H-dibenzo[b,e][1,4]diazepine-9-carboxamide] here?
Its remaining binding at 1 µM is 84%.

What about the remaining binding at 1 µM [2] of the same molecule?
Its remaining binding at 1 µM is 90%.

What about the remaining binding at 1 µM [3] of the same molecule?
Its remaining binding at 1 µM is 100%.

What about the remaining binding at 1 µM [4] of the same molecule?
The remaining binding at 1 µM was 98%.

And the remaining binding at 1 µM [5]?
Its remaining binding at 1 µM is 100%.

And the remaining binding at 1 µM [6]?
The remaining binding at 1 µM was 87%.

What about the remaining binding at 1 µM [7] of the same molecule?
The remaining binding at 1 µM was 100%.

And the remaining binding at 1 µM [8]?
Its remaining binding at 1 µM is 8%.

What about the remaining binding at 1 µM [9] of the same molecule?
The remaining binding at 1 µM was 81%.

And the remaining binding at 1 µM [10]?
The remaining binding at 1 µM was 100%.

And the remaining binding at 1 µM [11]?
The remaining binding at 1 µM was 100%.

What about the remaining binding at 1 µM [12] of the same molecule?
Its remaining binding at 1 µM is 100%.

And the remaining binding at 1 µM [13]?
Its remaining binding at 1 µM is 100%.

And the remaining binding at 1 µM [14]?
The remaining binding at 1 µM was 62%.

What about the remaining binding at 1 µM [15] of the same molecule?
Its remaining binding at 1 µM is 93%.

What about the remaining binding at 1 µM [16] of the same molecule?
The remaining binding at 1 µM was 83%.

And the remaining binding at 1 µM [17]?
The remaining binding at 1 µM was 100%.

And the remaining binding at 1 µM [18]?
Its remaining binding at 1 µM is 14%.

What about the remaining binding at 1 µM [19] of the same molecule?
Its remaining binding at 1 µM is 100%.

And the remaining binding at 1 µM [20]?
The remaining binding at 1 µM was 70%.

What about the remaining binding at 1 µM [21] of the same molecule?
The remaining binding at 1 µM was 90%.

What about the remaining binding at 1 µM [22] of the same molecule?
Its remaining binding at 1 µM is 100%.

And the remaining binding at 1 µM [23]?
The remaining binding at 1 µM was 50%.

And the remaining binding at 1 µM [24]?
Its remaining binding at 1 µM is 69%.

And the remaining binding at 1 µM [25]?
Its remaining binding at 1 µM is 99%.

What about the remaining binding at 1 µM [26] of the same molecule?
Its remaining binding at 1 µM is 91%.

What about the remaining binding at 1 µM [27] of the same molecule?
The remaining binding at 1 µM was 100%.

And the remaining binding at 1 µM [28]?
The remaining binding at 1 µM was 87%.

And the remaining binding at 1 µM [29]?
Its remaining binding at 1 µM is 100%.

And the kinact [30]?
Its kinact is 0.00867 s⁻¹.

What about the Ki ([30]; read-out: KI, LR) of the same molecule?
The Ki was 0.61 ± 0.03 µM.

What about the kinact/KI ([30]; read-out: kinact/KI, LR) of the same molecule?
Its kinact/KI is 14100 ± 300 M⁻¹ s⁻¹.
